Consider four molecules from patent US8957114B2, “Formulations, salts and polymorphs of transnorsertraline and uses thereof” (Sunovion Pharmaceuticals Inc., priority 2009, dated 2015).

What all share (format): physicochemical
The nature of data set [1]: Stability of isolated degradants of formula (III) fractions. As to conditions: for compound converted: in the presence of NH4OAc, after 24 hours; for stability of freshly isolated fractions: without NH4OAc, a few days at room temperature. How it is done:
Degradation products of active were isolated using semi-preparative HPLC (Zorbax SB-SN, 5 um, 9.2×250 mm; 20% ACN/H2O with 0.1% formic acid as mobile phase, 4 mL/min) with the aforementioned open dish degradation sample. Fractions containing these impurities were neutralized with 0.1 M NH4OAc before drying under vacuum to prevent possible decomposition.
Impurities 3 and 4 share the same molecular weight of 323 with almost identical MS fragmentation pattern. After the isolation and drying process, it was noticed that impurities 3 and 4 were converted to impurities 1 and 2 respectively (by HPLC retention time, MS data and ^1H NMR spectrum).
However, in the presence of NH4OAc, almost 50% of the compounds were converted after 24 hours. Furthermore, it was observed that upon drying under vacuum, Degradants III-c and III-d were converted to Degradants III-a and III-b independent of the presence of NH4OAc. Because the molecular formula difference between Degradants III-c and III-a was one oxygen atom as measured by HR-MS, it was concluded that Degradants […] and III-d were a diasteromeric pair of 4-hydroperoxy transnorsertraline. The conversions from impurity 3 and Degradant III-d to Degradants III-a and III-b may be by a decomposition process of hydroperoxides.

Data set [2] in a line: Stability of transnorsertraline HCl blends with mannitol lots containing mannose, amount of degradant II (open dish 30° C./65% RH, HPLC). The text has this: The amount of conjugate degradant leveled off at about two weeks and then slightly declined as stress time increases. Formation of the degradant of formula II also depends on the temperature.
The amount of mannose in mannitol appeared to be the controlling factor, not the type of mannitol used in transnorsertraline HCl formulation (i.e., crystalline vs. spray dried). This was later confirmed from the results obtained using recrystallized mannitol samples spiked with mannose in the stability study of transnorsertraline HCl formulations.
Three recrystallized mannitol lots spiked with mannose were selected for further study based on their % mannose values. Crystalline mannitol and spray dried mannitol were used as controls. The recrystallized spray dried mannitol lot was also used in the study to determine whether the type of mannitol used (crystalline vs. spray dried) was significant. Transnorsertraline HCl blends were made using the selected mannitol lots and placed at 30° C./65% RH under open dish conditions and analyzed initially and then at 2, 4 and 6 weeks using HPLC.

The nature of data set [3]: Solid stability of transnorsertraline salts (HPLC impurities). The note with it: HDPE container. As for the experimental part: Salts of transnorsertraline were tested for solid stability under various conditions. Solid samples of the HCl salt were placed in double-polyehylene lined high density polyethylene (HDPE) containers closed with HDPE lids and stored at 25° C./60% relative humidity or 40° C./75% relative humidity. Samples were analyzed by HPLC.

A short description of data set [4]: Polymorphic conversion of anhydrous transnorsertraline hydrochloride to hydrate in aqueous media, in-situ Raman monitoring. The note with it: for form conversion completed / start of form conversion to hydrate / end of form conversion: 37° C. As for the experimental part:
The study of the conversion of anhydrous transnorsertraline hydrochloride to the hydrate form in aqueous media was investigated, using in-situ Raman monitoring.
Raman spectroscopy was performed using a Kaiser Optical Systems Inc. dispersive RamanRXN3 for on-line or in-situ reaction monitoring. The RamanRXN3 system uses an excitation wavelength of 785 nm, with an external cavity-stabilized, diode laser. All spectra were acquired using a ¼″ immersion probe with approximately 100 mW of laser power at the tip of the probe. Different exposure times and numbers of spectrum accumulations were used for the analysis of the two dry samples. An exposure time of 4 seconds with 2 accumulations was used for the monitoring of all form conversions experiments. Wavelength and laser wavelength calibration were performed using an internal neon standard, and diamond Raman shift standard, respectively. The intensity calibration was performed using a Kaiser Raman calibration accessory.
Regions 660-715 cm^−1 and 1430-1490 cm^−1 in particular show little overlapping of the peaks characteristic of each form. Experimental results confirmed that no peaks in the regions […] and 1430-1490 cm^−1 were likely to overlap with peaks of interest to follow the conversion between the two crystalline forms of transnorsertraline hydrochloride.
The conversion of anhydrous transnorsertraline hydrochloride to the monohydrate form was monitored in water. […] Based on the peak intensity ratio I(677 cm^−1)/I(695 cm^−1), an induction time of approximately 1.1 hour was seen before the beginning of the conversion. The end of the conversion was estimated at approximately 2 hours from the beginning of the slurry. […] XRPD analysis of the solids collected at the end of the Raman monitoring of the conversion (after approximately 2 h 10 min) was consistent with the hydrate form, with a small amount of anhydrous form detectable. […] Additionally, the Raman limit of detection of the anhydrous form in the mixture was not estimated.
The conversion of anhydrous transnorsertraline hydrochloride to the hydrate form in water, simulated gastric fluid (SGF) and simulated intestinal fluid (SIF) without enzymes, and 0.1N HCl was monitored at 37° C.
Overall, similar results were obtained in water and simulated gastric fluid, with the start of the form conversion detected at approximately 1.3 hours, with a slightly faster conversion in simulated gastric fluid compared to water. The complete conversion was estimated to occur within 3 to 4 hours in the two media. […] XPRD analysis of the solids collected at the end of each experiments were consistent with the hydrate form, with or without some anhydrous form present. The small amount of anhydrous form may be due to residual solids on the walls of the vessel at the time of the slurry.

[5] abbreviates: SIF without enzymes, small scale.

Take `N[C@@H]1CCC(OO)(c2ccc(Cl)c(Cl)c2)c2ccccc21` (single isomer, unassigned) [Degradant-III-c, 4-hydroperoxy transnorsertraline]: in data set [1], the compound converted was about 50% and the “stability of freshly isolated fractions” value is “relatively stable”.
The like results for `N[C@@H]1CCC(OO)(c2ccc(Cl)c(Cl)c2)c2ccccc21` (single isomer, unassigned) [III-d, 4-hydroperoxy transnorsertraline] were, in that order, about 50% and “relatively stable”.
In the case of `OCC1OC(NC2CCC(c3ccc(Cl)c(Cl)c3)c3ccccc32)C(O)C(O)C1O` (stereo not shown) [degradant of formula II], the “behaviour of degradant at higher temperature” value in data set [2] is “underwent decomposition”.
Turning to “transnorsertraline hydrochloride anhydrate”, the “impurities (HPLC)” value in data set [3] (25° C./60% RH and 40° C./75% RH, at least 6 months) is reported as “less than 0.05%”; in data set [3] (25° C./60% relative humidity, 2 years), “less than 0.1%”. For the same molecule, the form conversion completed in data set [4] (0.1N HCl), in data set [4] (SGF without enzymes) and in data set [4] (water) was 3 to 4 h each time. In addition, the “start of form conversion to hydrate” value was about 2 h in data set [4] (0.1N HCl); “approximately 1.3 hours” in data set [4] (SGF without enzymes); about 19 h in data set [4] (SIF without enzymes, larger scale); “approximately 10 hours” in data set [4] (setting [5]); “approximately 1.3 hours” in data set [4] (water). The “end of form conversion” value in data set [4] (SIF without enzymes, large scale) was about 36 h; in data set [4] (setting [5]), “approximately 12.5 hours”. Also, the “induction time before the beginning of the conversion to monohydrate” value in data set [4] (slurry in water, Raman peak ratio I(677)/I(695)) was “approximately 1.1 hour”. The “end of the conversion to monohydrate” value in data set [4] (slurry in water, from the beginning of the slurry) is “approximately 2 hours”.
